Reference: patent US20020032325A1, “4-amino-3-mercapto-1,2,4-triazoles” (priority 1999, published 2002)

Columns and labels:
[1] = target: T1, nitric oxide synthase (Mus musculus, UniProt P29477); experiment: NOS inhibition assay: nitric oxide (nitrite, Greiss reagent) production from PAM 212 keratinocytes stimulated with gamma interferon; format: cell-based; conditions: 100 U/ml gamma interferon, 72 hours, nitrite in medium
T1 sequence (P29477 1-1144): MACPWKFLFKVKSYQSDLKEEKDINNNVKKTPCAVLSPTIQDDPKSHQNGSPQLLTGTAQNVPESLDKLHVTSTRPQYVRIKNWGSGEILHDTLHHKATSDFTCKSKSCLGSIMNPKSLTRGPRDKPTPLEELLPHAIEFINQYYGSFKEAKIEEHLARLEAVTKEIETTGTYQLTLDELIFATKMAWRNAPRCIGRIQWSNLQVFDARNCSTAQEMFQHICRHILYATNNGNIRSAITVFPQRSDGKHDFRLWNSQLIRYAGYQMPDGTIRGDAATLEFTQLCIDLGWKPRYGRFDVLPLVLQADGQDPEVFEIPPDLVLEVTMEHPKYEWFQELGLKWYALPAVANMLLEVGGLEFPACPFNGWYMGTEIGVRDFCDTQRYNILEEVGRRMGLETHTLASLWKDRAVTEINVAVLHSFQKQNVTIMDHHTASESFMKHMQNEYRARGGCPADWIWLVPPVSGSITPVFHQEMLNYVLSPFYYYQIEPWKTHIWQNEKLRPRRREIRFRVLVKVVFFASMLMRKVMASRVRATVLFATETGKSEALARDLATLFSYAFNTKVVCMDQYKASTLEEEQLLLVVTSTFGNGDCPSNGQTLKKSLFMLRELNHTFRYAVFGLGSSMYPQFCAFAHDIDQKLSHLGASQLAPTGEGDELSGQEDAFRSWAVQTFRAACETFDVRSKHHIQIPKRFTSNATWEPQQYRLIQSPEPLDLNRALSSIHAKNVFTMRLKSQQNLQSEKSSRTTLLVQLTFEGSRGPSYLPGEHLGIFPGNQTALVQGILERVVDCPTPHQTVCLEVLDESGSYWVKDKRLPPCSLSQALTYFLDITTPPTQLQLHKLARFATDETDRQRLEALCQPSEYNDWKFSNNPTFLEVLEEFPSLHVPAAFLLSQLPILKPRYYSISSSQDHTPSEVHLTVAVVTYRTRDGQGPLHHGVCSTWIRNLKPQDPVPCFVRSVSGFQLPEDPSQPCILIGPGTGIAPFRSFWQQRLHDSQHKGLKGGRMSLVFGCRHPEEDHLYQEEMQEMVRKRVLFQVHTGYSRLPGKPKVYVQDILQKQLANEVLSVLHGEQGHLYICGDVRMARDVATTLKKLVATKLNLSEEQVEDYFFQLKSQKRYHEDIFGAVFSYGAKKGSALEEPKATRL

[2] = tested on: PAM 212 cells; experiment: Antiproliferative assay, PAM 212 tumor cells counted with Coulter counter; format: cell-based; conditions: Mus musculus, PAM212, grown 4 to 5 days, read-out: IC50, concentration inhibiting cell growth by 50%
Description: The ability of any one of the compounds according to the present invention to inhibit cell growth is recognized by the scientific community to be directly related to its therapeutic potential as an anticancer agent. This type of growth assay can be used with mammalian cancer cells as well as with pathogenic and non-pathogenic microbes, including, but not limited to, yeasts and bacteria. To assay these compounds for anticancer activity, tumor cells (PAM 212) grown in vitro in monolayer culture flasks were used. […] Triplicate wells on the plates were used to measure control growth and growth of the cells in the presence of each concentration of anticancer agent. The cells were then returned to the incubator. […] The cells from each well on the culture dishes were removed by trypsin treatment and counted with a Coulter counter. After a period of time, the number of cells in each well was determined. The data can be presented as a curve showing the inhibition of tumor cell growth with increasing concentrations of the test compound. […] Each of the compounds according to the present invention was a potent inhibitor of cell growth with the IC50 values being typically in the micromolar concentration range.

IC50 [1] [µM] | melting point [°C] | Structure (SMILES) | IC50 [2] [µM]
30 |  | Fc1ccc(-c2nnc3n2N=C(C(F)(F)F)CS3)cc1 | 
 | 196 to 197 | CC(CCCl)Sc1nnc(-c2cccs2)n1N (stereo not drawn) | 
12 | 214 to 215 | O=[N+]([O-])c1ccccc1C=CC=Nn1c(S)nnc1-c1cccs1 [Compound VIIc] | 60
52 |  | C1=Nn2c(Cc3ccccc3)nnc2SC(c2ccccc2)=C1 [IV (R = benzyl, R′ = H)] | 
21 | 217 to 219 | Fc1ccc(-c2nnc3n2N=CC=C(c2ccccc2)S3)cc1 [IVb] | 
17 | 125 to 126 | Cc1nnc2n1N(C)C(C=Cc1ccccc1)S2 (stereo not drawn) [IXf] | > 100
35 | 206 to 206.5 | Sc1nnc(-c2cccs2)n1N=CC=Cc1ccccc1 [VIIa, 4-imino-(cinnamyl)-3-mercapto-5-(2-thienyl)-4H-1,2,4-triazole] | 
> 100 | 227 to 228 | COc1ccccc1C=CC=Nn1c(S)nnc1-c1cccs1 [VIIb] | 
> 100 | 109.5 to 111 | CC(CC(=O)Oc1ccccc1)Sc1nnc(-c2cccs2)n1N (stereo not drawn) [VIb] | 
110 | 222 to 223 | C1=C(c2ccccc2)Sc2nnc(-c3ccccc3)n2NC1 [Va] | 

Second part, the compound before the results:

Structure (SMILES) | IC50 [1] [µM] | melting point [°C] | IC50 [2] [µM]
CSc1nnc(C2CCCCC2)n1N=CC(Br)=Cc1ccccc1 [Compound Xi] | 146 |  | 
Nn1c(-c2cccs2)n[nH]c1=S [III (R = 2-thienyl), 4-amino-3-mercapto-5-(2-thienyl)-(4H)-1,2,4-triazole] | 77 |  | 
Nn1c(S)nnc1-c1ccc(F)cc1 [III (R = 4-F—C6H4—)] | 98 |  | 
Brc1ccccc1-c1nnc2n1N=CC=C(c1ccccc1)S2 [IV (R = 2-Br—C6H4—, R′ = H)] | 87 |  | 
C1=Nn2c(nnc2-c2cccs2)SC(c2ccccc2)=C1 [IVc] | 48 | 164 to 166 | 
CN1C(C=Cc2ccccc2)Sc2nnc(-c3cccs3)n21 (stereo not drawn) [IXa] | 15 | 250 to 252 | 44
CN1C(C=Cc2ccccc2)Sc2nnc(-c3ccco3)n21 (stereo not drawn) [IXd] | 14 | 128 to 129.5 | 45
COC(=O)CCSc1nnc(C)n1N [VI (R = methyl, R′ = —CH2—CH2—COOMe)] | 170 |  | 
Fc1ccc(-c2nnc3n2N=C(c2ccccc2)CS3)cc1 [VIII (R = 4-F—C6H4—, R′ = phenyl)] | > 100 |  | 
Cc1nnc2n1N=C(C(F)(F)F)CS2 [VIIIc] | > 100 | 85 to 86 | 
Oc1cccc(C=Nn2c(S)nnc2-c2cccnc2)c1O [VIIr] | 29 |  | 
